We go through 7 molecules from article PMC9658513, “Discovery of Compounds That Selectively Repress the Amyloidogenic Processing of the Amyloid Precursor Protein: Design, Synthesis and Pharmacological Evaluation of Diphenylpyrazoles” (International Journal of Molecular Sciences, 2022).

Read-outs that look alike come from different tables or passages of the source. Where only a bound is given, the exact number is not on record here.

Common to all, as to format: cell-based, human
One data set relates to p62/LC3. Kind of data set: Ratio between p62 and LC3 expression levels. The settings on record: compound at 3 µM, 24 h, SY5Y-APP^wt cells. The source says:
Compounds from both series were selected to first determine the potential relationship between the repression of Aβ1–x production and the increased expression of LC3 and p62. […] We then also considered the ratio between the p62 and LC3 expression levels.
Figure 3 Effect of compounds 24, 33, 34, 57, 65, 67, 70, and 71 on the autophagic flux in SY5Y-APP^wt cells. […] Cell lysates were immunolabeled with the following antibodies: p62 (a), LC3 (b), and β-actin. Statistical significance was set at * p < 0.05, ** p < […], *[…], **** p < 0.0001, and ns as not significant.

The nature of the next data set: in vitro. As to conditions: human. A digest of the protocol:
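Cells seeded at 3 × 10^4 per well, attached 24 h, then exposed to drug for 72 h in DMEM with 10% SVF. Viability by MTS colorimetric assay, absorbance at 490 nm.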

For data set [1], the system named is AICD (APP intracellular domain). As to the kind of experiment: AICD level by Western blotting in SY5Y-APP^WT cells. As to conditions: concentration increasing AICD 20-fold vs untreated control, read-out: AICD (C20). The gist of the method:
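SH-SY5Y cells stably expressing human wild-type APP695 treated with compounds for 24 h at 37 °C. αCTF and AICD measured by Western blot of lysates (10 µg protein, 12% Bis-Tris gels) as band intensity; C20 is concentration raising these fragments 20-fold over control.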

What is called CC50 is the concentration that lowers cell viability or growth by half. A lower CC50 goes with harm at low concentration. `Cc1cn(-c2cccc(CN(C)C)c2)nc1-c1ccc(CN(C)CCCN(C)C)cc1` [Compound 67, {[4-(1-{3-[(Dimethylamino)methyl]phenyl}-4-methyl-1H-pyrazol-3-yl)phenyl]methyl} [3-(Dimethylamino)propyl]methylamine]: the p62/LC3 in the data set with p62/LC3 worked out at 0.51. Besides, in “in vitro”, the CC50 at 72 h is 12 µM. Also, the EC (20-fold increase) in data set [1] (Homo sapiens) turned out to be 1.2 µM.
Take `CN(C)CCCc1ccc(-c2nn(-c3ccc(CN(C)C)cc3)cc2CN(C)C)cc1` [Compound 24, 3-[4-[4-(Dimethylaminomethyl)-1-[4-(dimethylaminomethyl)phenyl] Pyrazol-3-yl]phenyl]-N,N-dimethyl-propan-1-amine]: the p62/LC3 with p62/LC3 stood at 0.49. In “in vitro”, this molecule registered a CC50 at 72 h of over 100 µM. In data set [1] (Homo sapiens), the EC (20-fold increase) stood at 2.2 µM.
For the molecule `Cc1cn(-c2cccc(CN3CCN(C)CC3)c2)nc1-c1cccc(CN(C)CCCN(C)C)c1` [Compound 71, N,N,N′-Trimethyl-N′-[[3-[4-methyl-1-[3-[(4-methylpiperazin-1-yl)methyl]phenyl]pyrazol-3-yl]phenyl]methyl]propane-1,3-diamine], the p62/LC3 in the data set on p62/LC3 was determined as 0.34. Moreover, the CC50 at 72 h in the data set “in vitro” amounted to 25 µM. For the same molecule, the EC (20-fold increase) in data set [1] (Homo sapiens) came out at 1 µM.
For the molecule `Cc1cn(-c2cccc(CN(C)C)c2)nc1-c1cccc(CN(C)CCCN(C)C)c1` [Compound 70, N′-[[3-[1-[3-(Dimethylaminomethyl)phenyl]-4-methyl-pyrazol-3-yl]phenyl] Methyl]-N,N,N′-trimethyl-propane-1,3-diamine], in the data set with p62/LC3, the p62/LC3 is recorded as 0.30. In addition, the half-maximal cytotoxic concentration (CC50) at 72 h in the data set “in vitro” turned out to be 51 µM. Also, in data set [1] (Homo sapiens), the EC (20-fold increase) came to 1.7 µM.
On to `Cc1cn(-c2cccc(CN3CCN(C)CC3)c2)nc1-c1cccc(CN(C)C)c1` [Compound 65, N,N-dimethyl-1-[3-[4-methyl-1-[3-[(4-methylpiperazin-1-yl)methyl]phenyl]pyrazol-3-yl]phenyl]methanamine], for which the p62/LC3 in the data set with p62/LC3 amounted to 0.63. Also, in “in vitro”, the CC50 at 72 h was over 100 µM. Further, the EC (20-fold increase) in data set [1] (Homo sapiens) worked out at 2.8 µM.
Take “N′-[[4-[4-[3-(Dimethylamino)propyl]-3-[4-[3-(dimethylamino)propyl]phenyl] Pyrazol-1-yl]phenyl]methyl]-N,N,N′-trimethyl-propane-1,3-diamine [Compound 33]”: the p62/LC3 with p62/LC3 is reported as 0.98. In data set [1], the EC (20-fold increase) stood at 8.9 µM.
For `Cc1cn(-c2cccc(CO)c2)nc1-c1ccc(CN(C)CCCN(C)C)cc1` [Compound 57, (3-{3-[4-({[3-(Dimethylamino)propyl](methyl)amino}methyl)phenyl]-4-methyl-1H-pyrazol-1-yl}phenyl)methanol], the p62/LC3 in the data set on p62/LC3 is reported as 0.71. In addition, the CC50 at 72 h in “in vitro” is over 100 µM. Further, in data set [1] (Homo sapiens), the EC (20-fold increase) is 8.5 µM.
